According to patent US12029818B2 (CRITITECH, INC., priority 2020, dated 2024):

Key:
[1] = PXRD solid form and 14 day room temperature stability study
[2] = Specific surface area by BET sorptometry
Protocol: SSA determination analyses were conducted on a Porous Materials, Inc., Automated BET Sorptometer BET-202A according to manufacturer's instructions.

[3] = Particle size distribution (PSD) by laser diffraction, Malvern Mastersizer 3000; assay type: physicochemical
Protocol: PSD analyses were conducted on a Malvern Mastersizer™ 3000 using the Aero S™ dispersion unit according to manufacturer's instructions.

[4] = Shake-flask solubility in organic solvent/water mixtures; assay type: physicochemical; settings: methanol and ethanol in water
Protocol: The drug was added in excess to each solution prepared in duplicate.

Question: What does the source list for `CS(=O)(=O)CCNCc1ccc(-c2ccc3ncnc(Nc4ccc(OCc5cccc(F)c5)c(Cl)c4)c3c2)o1` [Lapatinib, N-(3-chloro-4-{[(3-fluorophenyl)methyl]oxy}phenyl)-6-[5-({[2-(methylsulfonyl)ethyl]amino}methyl)-2-furanyl]-4-quinazolinamine]?
Answer: Crystalline/amorphous form by PXRD [1]: crystalline; SSA ([2]; listed as Lapatinib Raw): 2.33 m^2/g; SSA ([2]; listed as unprocessed material): 1.60 m^2/g; PSD: Volume Dv-10 [3]: 0.839 μm; PSD: Volume Dv-50 [3]: 6.59 μm; PSD: Volume Dv-90 [3]: 335 μm; Solubility dependence on organic solvent concentration [4]: concentration dependent solubility
